Tests used:
Type in all cases: cell-based
SMARCA2 [1] = target: T1, SMARCA2 (Homo sapiens, UniProt P51531); experiment: HiBit assay in engineered HT1080 CRISPR knock-in cell, 6 hrs (B series), SMARCA2; settings: 6 hrs incubation; for DC50: HT1080 CRISPR knock-in cells, read-out: SMARC A2 HT1080 HiBit DC50; for Dmax: HT-1080, HT1080 CRISPR knock-in cells, read-out: SMARC A2 HT1080 HiBit Dmax (%)
Experimental: (§1) The HiBit assay was performed using engineered HT1080 CRISPR knock-in cell utilizing the Nano-Glo HiBiT Lytic Detection System from Promega, Cat #N3040. Compounds were transferred, 25 nL DMSO or test compounds (final DMSO @ 0.1%) to intermediate plates (Corning3570) using ECHO550. Cells were seeded onto compounds at 2000 cells/25 μL/well and incubated for 6 hrs in a tissue culture incubator at 37° C. and 5% CO2. The LgBiT Protein was diluted at 1:100 and the Nano-Glo® HiBIT Lytic Substrate 1:50 into an appropriate volume of room temperature using the Nano-Glo® HiBiT Lytic Buffer. At the end of compound incubation time, 15 ul of the detection reagent was added to each well (without LgBiT for negative control wells) using the Thermo Scientific multidrop combi. The plate was shaken for 10 mins at RT using Combi. After briefly centrifugation (2000 rpm 1 mins), plate was read on Envision (Ultrasensitive luminescence model).

SMARCA4 = SMARCA4 (Homo sapiens, UniProt P51532); experiment: HiBit assay in engineered HT1080 CRISPR knock-in cell, 6 hrs (B series), SMARCA4; settings: 6 hrs incubation; for DC50: HT1080 CRISPR knock-in cells, read-out: SMARC A4 HT1080 HiBit DC50; for Dmax: HT-1080, HT1080 CRISPR knock-in cells, read-out: SMARC A4 HT1080 HiBit Dmax(%)
SMARCA4, sequence (P51532 whole entry): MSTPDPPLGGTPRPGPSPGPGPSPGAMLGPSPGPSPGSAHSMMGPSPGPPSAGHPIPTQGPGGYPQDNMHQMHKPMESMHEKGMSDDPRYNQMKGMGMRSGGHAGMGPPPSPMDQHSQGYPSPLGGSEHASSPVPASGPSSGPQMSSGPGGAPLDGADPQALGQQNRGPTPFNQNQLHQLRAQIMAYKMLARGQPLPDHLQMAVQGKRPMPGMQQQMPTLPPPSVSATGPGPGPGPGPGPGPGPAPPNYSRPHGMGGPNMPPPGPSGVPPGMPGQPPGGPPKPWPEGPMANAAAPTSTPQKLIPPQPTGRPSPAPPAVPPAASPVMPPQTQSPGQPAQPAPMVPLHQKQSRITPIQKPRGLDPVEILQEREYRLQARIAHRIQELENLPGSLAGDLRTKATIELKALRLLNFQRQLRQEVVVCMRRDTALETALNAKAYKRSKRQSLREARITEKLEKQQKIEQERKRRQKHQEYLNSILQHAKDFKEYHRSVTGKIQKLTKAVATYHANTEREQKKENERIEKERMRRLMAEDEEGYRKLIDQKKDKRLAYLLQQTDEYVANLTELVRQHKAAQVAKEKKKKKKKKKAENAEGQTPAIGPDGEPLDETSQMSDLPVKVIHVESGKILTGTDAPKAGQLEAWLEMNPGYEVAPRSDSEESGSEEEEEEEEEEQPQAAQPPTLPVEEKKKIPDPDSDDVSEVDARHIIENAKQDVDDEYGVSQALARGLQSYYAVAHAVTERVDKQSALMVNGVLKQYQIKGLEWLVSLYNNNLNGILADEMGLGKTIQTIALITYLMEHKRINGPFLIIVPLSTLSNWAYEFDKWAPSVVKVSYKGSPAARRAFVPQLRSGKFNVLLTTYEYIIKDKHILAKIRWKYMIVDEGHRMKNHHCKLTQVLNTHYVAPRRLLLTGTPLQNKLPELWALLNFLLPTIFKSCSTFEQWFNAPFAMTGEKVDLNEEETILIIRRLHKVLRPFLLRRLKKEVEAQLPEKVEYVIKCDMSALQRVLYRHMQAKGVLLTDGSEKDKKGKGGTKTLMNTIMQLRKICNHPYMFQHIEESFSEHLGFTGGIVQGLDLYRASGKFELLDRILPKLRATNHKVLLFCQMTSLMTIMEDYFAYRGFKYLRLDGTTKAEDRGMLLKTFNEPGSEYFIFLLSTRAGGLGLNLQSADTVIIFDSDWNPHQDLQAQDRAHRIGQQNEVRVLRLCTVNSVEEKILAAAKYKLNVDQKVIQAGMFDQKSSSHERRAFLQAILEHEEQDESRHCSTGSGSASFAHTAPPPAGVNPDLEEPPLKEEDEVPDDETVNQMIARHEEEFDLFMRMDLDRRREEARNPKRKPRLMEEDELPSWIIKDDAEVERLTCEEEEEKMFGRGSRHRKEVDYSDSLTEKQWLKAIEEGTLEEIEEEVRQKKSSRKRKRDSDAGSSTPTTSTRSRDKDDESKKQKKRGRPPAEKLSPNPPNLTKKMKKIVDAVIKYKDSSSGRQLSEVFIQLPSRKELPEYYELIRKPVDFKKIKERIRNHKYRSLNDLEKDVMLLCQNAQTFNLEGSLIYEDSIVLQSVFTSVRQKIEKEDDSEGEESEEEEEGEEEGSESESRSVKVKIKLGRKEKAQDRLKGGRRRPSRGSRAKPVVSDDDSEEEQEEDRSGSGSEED
Experimental: as §1

SMARCA2 [2] = target: T1, SMARCA2; experiment: HiBiT assay for protein degradation, Hela SMARCA2-HiBiT cells (A series); parameters: Hela cells were genetically modified via CRISPR/Cas9 to fuse HiBiT to the carboxy terminus of SMARCA2; host or cells: HeLa (CRISPR/Cas9 HiBiT knock-in); settings: Hela SMARCA2-HiBiT cells, 24 hours treatment; for Dmax: read-out: SMARC A2 Hela HiBit Dmax (%); for DC50: read-out: SMARC A2 Hela HiBit DC50;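 as to SMARC A2 Hela HiBit Dmax (%): 24 h compound treatment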
Experimental: Hela cells were genetically modified via CRISPR/Cas9 to fuse HiBiT to the carboxy terminus of SMARCA2 (Promega CS302365) or SMARCA4 (Promega CS3023225). Cells were cultured in DMEM containing 10% FBS and 1% (Vol:Vol) penicillin-streptomycin. […] At the end of experiment, levels of SMARCA2 or SMARCA4 expression were assessed with Nano-Glo® HiBiT Lytic Detection Assay (Promega N3050). IC50 was obtained using the GraphPad Prism data analysis software.

T1 sequence (P51531 whole entry): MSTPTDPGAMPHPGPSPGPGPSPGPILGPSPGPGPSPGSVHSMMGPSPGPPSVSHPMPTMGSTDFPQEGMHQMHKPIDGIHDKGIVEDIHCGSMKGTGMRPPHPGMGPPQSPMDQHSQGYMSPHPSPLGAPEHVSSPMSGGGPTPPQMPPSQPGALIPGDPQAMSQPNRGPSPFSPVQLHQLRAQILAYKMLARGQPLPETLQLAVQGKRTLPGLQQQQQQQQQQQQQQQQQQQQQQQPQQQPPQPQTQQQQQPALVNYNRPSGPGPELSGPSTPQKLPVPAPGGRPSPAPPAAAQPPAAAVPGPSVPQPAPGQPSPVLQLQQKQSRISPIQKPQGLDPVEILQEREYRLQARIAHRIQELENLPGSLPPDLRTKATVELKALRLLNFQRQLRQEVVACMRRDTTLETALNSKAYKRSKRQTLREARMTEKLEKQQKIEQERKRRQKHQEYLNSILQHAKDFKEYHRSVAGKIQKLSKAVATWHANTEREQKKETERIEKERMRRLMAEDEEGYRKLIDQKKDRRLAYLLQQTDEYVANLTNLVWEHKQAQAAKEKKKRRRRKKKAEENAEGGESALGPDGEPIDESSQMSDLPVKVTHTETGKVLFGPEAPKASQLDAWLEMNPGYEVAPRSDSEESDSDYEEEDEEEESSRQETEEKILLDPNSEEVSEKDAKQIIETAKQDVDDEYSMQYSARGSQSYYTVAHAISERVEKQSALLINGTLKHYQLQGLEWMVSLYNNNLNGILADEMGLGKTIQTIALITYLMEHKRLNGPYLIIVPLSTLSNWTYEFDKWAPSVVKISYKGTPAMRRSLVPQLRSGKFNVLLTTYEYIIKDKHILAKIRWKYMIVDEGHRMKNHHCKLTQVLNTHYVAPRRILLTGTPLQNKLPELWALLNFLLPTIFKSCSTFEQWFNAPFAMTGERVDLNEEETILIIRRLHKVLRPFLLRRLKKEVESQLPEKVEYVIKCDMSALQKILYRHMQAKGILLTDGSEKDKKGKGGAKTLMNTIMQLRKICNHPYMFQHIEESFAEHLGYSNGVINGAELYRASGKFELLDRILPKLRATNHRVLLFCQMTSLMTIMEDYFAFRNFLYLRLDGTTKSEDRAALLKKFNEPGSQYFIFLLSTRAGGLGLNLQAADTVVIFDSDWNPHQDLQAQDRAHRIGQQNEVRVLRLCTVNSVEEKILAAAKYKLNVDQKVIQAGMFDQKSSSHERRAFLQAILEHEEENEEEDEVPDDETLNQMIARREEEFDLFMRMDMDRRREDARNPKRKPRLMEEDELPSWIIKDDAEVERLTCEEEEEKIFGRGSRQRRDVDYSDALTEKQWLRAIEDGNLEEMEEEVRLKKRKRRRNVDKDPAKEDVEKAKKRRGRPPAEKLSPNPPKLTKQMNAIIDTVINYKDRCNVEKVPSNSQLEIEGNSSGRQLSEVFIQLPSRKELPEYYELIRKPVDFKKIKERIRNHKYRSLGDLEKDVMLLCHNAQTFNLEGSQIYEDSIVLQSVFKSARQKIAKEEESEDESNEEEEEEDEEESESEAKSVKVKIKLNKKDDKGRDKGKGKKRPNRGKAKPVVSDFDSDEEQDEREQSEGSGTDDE

Row | DC50 (SMARCA2 [1]) [nM] | Dmax (SMARCA2 [1]) [%] | DC50 (SMARCA4) [nM] | Dmax (SMARCA4) [%] | Dmax (SMARCA2 [2]) [%] | DC50 (SMARCA2 [2]) [nM] | SMILES
1 |  |  |  |  | > 90 | < 10 | Cc1ncsc1-c1ccc([C@H](CCN2CCOCC2)NC(=O)[C@@H]2C[C@@H](O)CN2C(=O)[C@@H](n2cc([C@H]3CC[C@H](CN4CCC(c5ccc6c(c5)-n5c(nc(=O)c7c(Cl)cccc75)C65CCCCC5)CC4)CC3)nn2)C(C)(C)C)cc1 [Compound A81, (2S,4R)-1-((S)-2-(4-((1r,4S)-4-((4-(4′-chloro-5′-oxo-5′H-spiro[cyclohexane-1,7′-indolo[1,2-a]quinazolin]-10′-yl)piperidin-1-yl)methyl)cyclohexyl)-1H-1,2,3-triazol-1-yl)-3,3-dimethylbutanoyl)-4-hydroxy-N—((S)-1-(4-(4-methylthiazol-5-yl)phenyl)-3-morpholinopropyl)pyrrolidine-2-carboxamide]
2 |  |  |  |  | > 90 | < 10 | COCCOCCOCC[C@H](NC(=O)[C@@H]1C[C@@H](O)CN1C(=O)[C@@H](n1cc([C@H]2CC[C@H](CN3CCC(c4ccc5c(c4)-n4c(nc(=O)c6c(Cl)cccc64)C54CCCCC4)CC3)CC2)nn1)C(C)(C)C)c1ccc(-c2scnc2C)cc1 [Compound A82, (2S,4R)-1-((S)-2-(4-((1r,4S)-4-((4-(4′-chloro-5′-oxo-5′H-spiro[cyclohexane-1,7′-indolo[1,2-a]quinazolin]-10′-yl)piperidin-1-yl)methyl)cyclohexyl)-1H-1,2,3-triazol-1-yl)-3,3-dimethylbutanoyl)-4-hydroxy-N—((S)-3-(2-(2-methoxyethoxy)ethoxy)-1-(4-(4-methylthiazol-5-yl)phenyl)propyl)pyrrolidine-2-carboxamide]
3 | < 100 | > 90 | < 100 | 50 to 69 |  |  | Cc1ncsc1-c1ccc([C@H](C)NC(=O)[C@@H]2C[C@@H](O)CN2C(=O)[C@@H](NC(=O)[C@H]2CC[C@H](CN3CCC(c4ccc5c(c4)C(C)(C)c4nc(=O)c6c(Cl)cccc6n4-5)CC3)CC2)C(C)(C)C)cc1 [Compound B1, (2S,4R)-1-((S)-2-((1r,4S)-4-((4-(4-chloro-7,7-dimethyl-5-oxo-5,7-dihydroindolo[1,2-a]quinazolin-9-yl)piperidin-1-yl)methyl)cyclohexane-1-carboxamido)-3,3-dimethylbutanoyl)-4-hydroxy-N—((S)-1-(4-(4-methylthiazol-5-yl)phenyl)ethyl)pyrrolidine-2-carboxamide]

More lines, now with the values behind:

Row | SMILES | DC50 (SMARCA2 [1]) [nM] | Dmax (SMARCA2 [1]) [%] | DC50 (SMARCA4) [nM] | Dmax (SMARCA4) [%] | Dmax (SMARCA2 [2]) [%] | DC50 (SMARCA2 [2]) [nM]
4 | Cc1ncsc1-c1ccc([C@H](C)NC(=O)C2C[C@@H](O)CN2C(=O)[C@@H](c2cc(OCCCCN3CCC(c4cccc5c4C(C)(C)c4nc(=O)c6c(Cl)cccc6n4-5)CC3)no2)C(C)C)cc1 (stereo in doubt) [Compound B98, (2S,4R)-1-(2-(3-(4-(4-(4-chloro-7,7-dimethyl-5-oxo-5,7-dihydroindolo[1,2-a]quinazolin-8-yl)piperidin-1-yl)butoxy)isoxazol-5-yl)-3-methylbutanoyl)-4-hydroxy-N-((S)-1-(4-(4-methylthiazol-5-yl)phenyl)ethyl)pyrrolidine-2-carboxamide] | < 100 | 70 to 90 | 100 to 500 | < 50 |  | 
5 | Cc1ncsc1-c1ccc(C(CN2CCOCC2)NC(=O)[C@@H]2C[C@@H](O)CN2C(=O)[C@H](c2cc(N3CCC(CN4CCN(c5ccc6c(c5)-n5c(nc(=O)c7c(Cl)cccc75)C65CCCCC5)CC4)CC3)no2)C(C)C)cc1 (stereo in doubt) [Compound B160, (2S,4R)-1-((S)-2-(3-(4-((4-(4′-chloro-5′-oxo-5′H-spiro[cyclohexane-1,7′-indolo[1,2-a]quinazolin]-10′-yl)piperazin-1-yl)methyl)piperidin-1-yl)isoxazol-5-yl)-3-methylbutanoyl)-4-hydroxy-N-((S)-1-(4-(4-methylthiazol-5-yl)phenyl)-2-morpholinoethyl)pyrrolidine-2-carboxamide] | < 100 | > 90 | < 100 | 50 to 69 |  | 
6 | Cc1ncsc1-c1ccc([C@H](CN2CCOCC2)NC(=O)[C@@H]2C[C@@H](O)CN2C(=O)[C@@H](n2cc(C3CCN(CC4CCN(c5ccc6c(c5)-n5c(nc(=O)c7c(Cl)cccc75)C65CCCCC5)CC4)CC3)nn2)C(C)(C)C)cc1 [Compound A168, (2S,4R)-1-((S)-2-(4-(1-((1-(4′-chloro-5′-oxo-5′H-spiro[cyclohexane-1,7′-indolo[1,2-a]quinazolin]-10′-yl)piperidin-4-yl)methyl)piperidin-4-yl)-1H-1,2,3-triazol-1-yl)-3,3-dimethylbutanoyl)-4-hydroxy-N—((R)-1-(4-(4-methylthiazol-5-yl)phenyl)-2-morpholinoethyl)pyrrolidine-2-carboxamide] |  |  |  |  | < 50 | > 1000
7 | Cc1ncsc1-c1ccc([C@H](CN2CCOCC2)NC(=O)[C@@H]2C[C@@H](O)CN2C(=O)[C@@H](n2cc(C3CCN(CC4CCN(c5ccc6c(c5)-n5c(nc(=O)c7c(Br)cccc75)C65CCCCC5)CC4)CC3)nn2)C(C)(C)C)cc1 [Compound A169, (2S,4R)-1-((S)-2-(4-(1-((1-(4′-bromo-5′-oxo-5′H-spiro[cyclohexane-1,7′-indolo[1,2-a]quinazolin]-10′-yl)piperidin-4-yl)methyl)piperidin-4-yl)-1H-1,2,3-triazol-1-yl)-3,3-dimethylbutanoyl)-4-hydroxy-N—((R)-1-(4-(4-methylthiazol-5-yl)phenyl)-2-morpholinoethyl)pyrrolidine-2-carboxamide] |  |  |  |  |  | > 1000
8 | Cc1ncsc1-c1ccc([C@H](CN2CCOCC2)NC(=O)[C@@H]2C[C@@H](O)CN2C(=O)[C@@H](n2cc(C3CCC(CN4CCC(c5ccc6c(c5)-n5c(nc(=O)c7ccccc75)C65CCCCC5)CC4)CC3)nn2)C(C)(C)C)cc1 (stereo partly drawn) [Compound A170, (2S,4R)-1-((S)-3,3-dimethyl-2-(4-(4-((4-(5′-oxo-5′H-spiro[cyclohexane-1,7′-indolo[1,2-a]quinazolin]-10′-yl)piperidin-1-yl)methyl)cyclohexyl)-1H-1,2,3-triazol-1-yl)butanoyl)-4-hydroxy-N—((R)-1-(4-(4-methylthiazol-5-yl)phenyl)-2-morpholinoethyl)pyrrolidine-2-carboxamide] |  |  |  |  | < 50 | > 1000
9 | Cc1ncsc1-c1ccc([C@H](CCCCCN2CCC(c3ccc4c(c3)C(C)(C)c3nc(=O)c5c(Br)cccc5n3-4)CC2)NC(=O)[C@@H]2C[C@@H](O)CN2C(=O)[C@@H](NC(=O)C2(F)CC2)C(C)(C)C)cc1 [Compound B2, (2S,4R)—N—((S)-6-(4-(4-bromo-7,7-dimethyl-5-oxo-5,7-dihydroindolo[1,2-a]quinazolin-9-yl)piperidin-1-yl)-1-(4-(4-methylthiazol-5-yl)phenyl)hexyl)-1-((S)-2-(1-fluorocyclopropane-1-carboxamido)-3,3-dimethylbutanoyl)-4-hydroxypyrrolidine-2-carboxamide] | < 100 | > 90 | < 100 | > 90 |  | 
10 | Cc1ncsc1-c1ccc([C@H](CCCCCN2CCC(c3ccc4c(c3)C(C)(C)c3nc(=O)c5c(Br)cccc5n3-4)CC2)NC(=O)[C@@H]2C[C@@H](O)CN2C(=O)[C@@H](NC(=O)C2(C#N)CC2)C(C)(C)C)cc1 [Compound B3, (2S,4R)—N—((S)-6-(4-(4-bromo-7,7-dimethyl-5-oxo-5,7-dihydroindolo[1,2-a]quinazolin-9-yl)piperidin-1-yl)-1-(4-(4-methylthiazol-5-yl)phenyl)hexyl)-1-((S)-2-(1-cyanocyclopropane-1-carboxamido)-3,3-dimethylbutanoyl)-4-hydroxypyrrolidine-2-carboxamide] | < 100 | > 90 | < 100 | > 90 |  | 
11 | Cc1ncsc1-c1ccc([C@H](CN2CCOCC2)NC(=O)[C@@H]2C[C@@H](O)CN2C(=O)[C@@H](n2cc([C@H]3CC[C@H](CN4CCC(c5ccc6c(c5)-n5c(nc(=O)c7c(Br)cccc75)C65CCCCC5)CC4)CC3)nn2)C(C)(C)C)cc1 [Compound B112, (2S,4R)-1-((S)-2-(4-((1r,4S)-4-((4-(4′-bromo-5′-oxo-5′H-spiro[cyclohexane-1,7′-indolo[1,2-a]quinazolin]-10′-yl)piperidin-1-yl)methyl)cyclohexyl)-1H-1,2,3-triazol-1-yl)-3,3-dimethylbutanoyl)-4-hydroxy-N-((R)-1-(4-(4-methylthiazol-5-yl)phenyl)-2-morpholinoethyl)pyrrolidine-2-carboxamide] | < 100 | > 90 |  |  |  | 
